Legend:
GAME35 = GAME35 enzyme assay; format: biochemical, tomato; details: 150 μM substrate, NADH or NADPH, 30° C., 3 hrs
Experimental: (§1) GAME25 and GAME35 genes were cloned into pET28 vector separately and expressed in E. coli BL21 (DE3). Bacterial cells were grown in LB medium at 37° C. When cultures reached A600=0.6, protein expression was induced with 200 μM of isopropyl-1-thio-β-d-galactopyranoside (IPTG) at 15° C. for 24 h. Bacterial cells were lysed by sonication in 50 mM Tris-HCl pH 7.5, 500 mM NaCl, 1 mM PMSF and protease inhibitor cocktail (Calbiochem). An aliquot of whole cell extract was kept for further analysis. Soluble protein was purified using Ni-NTA agarose beads (Adar Biotech) and eluted with 500 mM imidazole in buffer containing 50 mM NaH2PO4 pH-7.5 and 300 mM NaCl. The whole cell extract and the eluted fractions were analyzed by SDS-PAGE staining with InstatBlue and by Western blot with HRP conjugated anti-His antibodies (Sigma).
Purified GAME35 protein (5 μg) was incubated with solanid-4-en-3-one substrate (150 μM), DTT (1 mM), NADH or NADPH (500 μM) in sodium phosphate buffer (pH 7.4) at 30° C. for 3 hrs. The reactions were stopped by addition of 250 μl of 80% methanol and 0.1% formic acid, and followed by brief vortex and sonication for 15 min. Finally, the extracts were centrifuged for 10 min at 13,000×g and filtered through 0.22 μm filters, and analyzed by LC-MS, as described in the section above (plant extracts preparation and targeted profiling of steroidal metabolites). […]

tomato GAME25 [1] = assay: In vitro assay of recombinant tomato GAME25 (Sf9 microsomes, NAD+); format: biochemical, Solanum lycopersicum; details: 100 μM substrate, NAD+ 150 μM, pH 7.4, 37° C., 4 hrs; LC-MS
Experimental: (§2) For enzyme assay experiments, an additional MS-MS analysis with a collision energy ramp from 20 to 50 eV was performed to identify the structures of the enzymatic reaction products. The solanid-4-en-3-one product was identified based on the comparison of its retention time and MS-MS spectrum to those measured for its corresponding standard. Another three products (tomatid-4-en-3-one, solasod-4-en-3-one and diosgen-4-en-3-one) were putatively assigned as follows: first, elemental composition based on accurate masses and the isotopic pattern was calculated using the MassLynx software. Then the MS-MS fragmentation pattern was analyzed, and the fragments were assigned applying the fragmentation rules for steroid-based compounds.
(§3) Each expression vector construct was co-transfected with the ProGreen GFP linearized baculovirus DNA (AB vector) to generate the recombinant viruses in Spodoptera frugiperda (Sf9) insect cells. Infection efficiency was monitored by fluorescence of recombinant GFP viruses infected cells. Sf9 cells were grown in ESF921, protein free culture medium (Expression Systems). Three days post-infection cells were collected and washed twice in PBS. Microsomal fractions were isolated by suspending the cell pellet in 20 mM potassium phosphate buffer pH 7.25, 20% (v/v) glycerol, 1 mM EDTA and 1 mM DTT. The resuspended cells were sonicated, and the cell debris was removed by centrifugation at 10,000×g for 15 min. The supernatant was further centrifuged at 100,000×g for 60 min. The pellet containing the microsomal fractions was homogenized in lysis buffer. GAME25 was expressed with a myc-tag at the C-terminus. The isolated microsomal fractions were analyzed by SDS-PAGE and immune-blot with c-myc antibodies (A2S Technologies Ltd.).
(§4) The steroidal alkaloid aglycones dehydrotomatidine, solanidine and solasodine as well as their glycosylated forms (i.e. SGAs) α-tomatine, α-solanine, α-chaconine and α-solamargine were used as substrates for GAME25 enzyme assays. In vitro assays for the tomato and potato recombinant GAME25 enzymes were performed as follows: Briefly, microsomal fractions of Sf9 cells expressing tomato or potato GAME25 proteins (0.2 mg total protein was used per reaction) were separately incubated in sodium phosphate buffer (pH 7.4) with 100 μM of each individual substrate (details are mentioned above), DTT (5 mM) and NAD^+ (150 μM) at 37° C. for 4 hrs. The reactions were stopped by addition of 300 μl of 80% methanol and 0.1% formic acid, followed by brief vortex and sonication for 15 min. Finally, the extracts were centrifuged for 15 min at 14,000×g, filtered through 0.22 μm filters, and analyzed by LC-MS (see Plant extracts preparation and targeted profiling of steroidal metabolites section above). Sf9 cells (without the baculovirus vector) microsomes were used in control enzyme reactions.

potato GAME25 = assay: In vitro assay of recombinant potato GAME25 (Sf9 microsomes, NAD+); format: biochemical, Solanum tuberosum; details: 100 μM substrate, NAD+ 150 μM, pH 7.4, 37° C., 4 hrs; LC-MS
Experimental: as §2, §3, §4

SlGAME31 = assay: Enzymatic activity assay of recombinant SlGAME31 (hydroxylation of SA/SGAs); format: biochemical, Solanum lycopersicum
Experimental: (§5) GAME31 was amplified from cDNA (SEQ ID NO: 17) and cloned into pET28 vector by restriction free (RF) cloning as described previously (Unger et al., 2010, J Struct Biol. 172:34-44).
(§6) The resulting plasmids were verified by sequencing and transformed to E. coli BL21 DE3. For isolation of the GAME31-His tagged enzymes, fresh overnight cultures were diluted 1:100 in 1000 ml of LB medium (Formedium) with 50 μg/ml kanamycin and incubated at 37° C. and 250 rpm until an A600 nm of 0.5 was reached. Subsequently, for induction of expression of the recombinant proteins, IPTG was added to a final concentration of […] and the incubation was continued overnight at 16° C. and 250 rpm. Then cells were harvested by centrifugation at 10,000×g and bacteria were lysed by sonication in a buffer (pH 7.4) containing 0.02 M NaH2PO4 0.02 M, 0.5 M NaCl, and SIGMAFAST protease inhibitor tablets (Sigma-Aldrich) and benzonase nuclease (Sigma-Aldrich) according to manufacturer's instructions. Lysed cultures were centrifuged, and the soluble fraction was purified by nickel affinity chromatography which was operated with an AKTA liquid chromatography system (AKTA avant, GE Healthcare) according to the manufacturer's instructions. Proteins were stored at −80° C. until further analysis.
All the SA/SGAs substrates were prepared at a concentration of 1 mg/ml, dissolved in methanol, except dehydrotomatine that was prepared in DMSO. The enzymatic activity was performed according to Kawai et al. (2014) Evolution and diversity of the 2-oxoglutarate-dependent dioxygenase superfamily in plants. Plant J. 78: 328-43. Briefly, the standard full reaction (100 μL) consisted of 10 mM L-ascorbic acid, 10 mM α-ketoglutaric acid, 500 μM FeSO4, 20 μM substrate, 50 mM potassium phosphate buffer (pH 7.5) and purified enzyme. All the components, except the enzyme, were pre-incubated for 10 min at 30° C., after which the reaction was started by addition of the enzyme. After incubation at 30° C. for 1 h, the reaction was stopped by freezing in liquid nitrogen Finally, the reaction was mixed with 300 μL methanol, extracted and analyzed by UPLC-qTOF-MS as described above.

plant cells = details: cited from earlier work
SmGAME31 = assay: Enzymatic activity assay of recombinant SmGAME31 (hydroxylation of SA/SGAs); format: biochemical, Solanum melongena; details: full reaction, 20 μM substrate, 30° C., 1 h
Experimental: as §5
as §6, with “Lysed cultures were centrifuged, and the soluble fraction was purified by nickel affinity chromatography which was operated with an AKTA liquid chromatography system (AKTA avant, GE Healthcare) according to the manufacturer's instructions. Proteins were stored at −80° C. until further analysis.” left out
All the SA/SGAs substrates were prepared at a concentration of 1 mg/ml, dissolved in methanol, except dehydrotomatine that was prepared in DMSO. […] After incubation at 30° C. for 1 h, the reaction was stopped by freezing in liquid nitrogen Finally, the reaction was mixed with 300 μL methanol, extracted and analyzed by UPLC-qTOF-MS as described above.

tomato GAME25 [2] = assay: In vitro assay of purified recombinant tomato GAME25 expressed in E. coli; format: biochemical, Solanum lycopersicum; details: purified enzyme (5 μg), NAD+ cofactor
Experimental: as §2
as §1, with “Soluble protein was purified using Ni-NTA agarose beads (Adar Biotech) and eluted with 500 mM imidazole in buffer containing 50 mM NaH2PO4 pH-7.5 and 300 mM NaCl.” left out, “(Sigma). […]” for “(Sigma).”

animals and humans = details: studies in animal models; cited from earlier work
[3] = full reaction: ketoglutaric acid, ascorbic acid, FeSO4, 20 μM substrate, 30° C., 1 h

Molecule | activity with substrate / product formed (tomato GAME25 [1]) | activity with substrate / product formed (potato GAME25) | hydroxylation of substrate (SlGAME31; [3]) | also measured
C[C@H]1CC[C@@H]2[C@@H](C)C3C(CC4C5CCC6=CC(=O)CCC6(C)C5CCC43C)N2C1 (stereo partly shown) [solanid-4-en-3-one] | – | – | – | activity with substrate (GAME35): did not react
C[C@@H]1CC[C@@]2(NC1)O[C@H]1C[C@H]3[C@@H]4CC=C5C[C@@H](O)CC[C@]5(C)[C@H]4CC[C@]3(C)[C@H]1[C@@H]2C [solasodine] | solasod-4-en-3-one | solasod-4-en-3-one | – | –
C[C@H]1CC[C@]2(NC1)O[C@H]1C[C@H]3[C@@H]4CC[C@H]5C[C@@H](O)CC[C@]5(C)[C@H]4CC[C@]3(C)[C@H]1[C@@H]2C [tomatidine] | – | – | did not show activity | toxicity to plant cells (plant cells): highly toxic; hydroxylation of substrate (SmGAME31): did not hydroxylate
cholestenol | not reactive | not reactive | – | –
C[C@H]1CC[C@@H]2[C@@H](C)[C@H]3[C@H](C[C@H]4[C@@H]5CC=C6C[C@@H](O[C@@H]7O[C@H](CO)[C@H](O)[C@H](O[C@@H]8O[C@H](CO)[C@@H](O)[C@H](O)[C@H]8O)[C@H]7O[C@@H]7O[C@@H](C)[C@H](O)[C@@H](O)[C@H]7O)CC[C@]6(C)[C@H]5CC[C@]34C)N2C1 [α-solanine] | no activity | no activity | – | –
CC(C)CCC[C@@H](C)[C@H]1CC[C@H]2[C@@H]3CC=C4C[C@@H](O)CC[C@]4(C)[C@H]3CC[C@]12C [cholesterol] | not reactive | not reactive | – | –
C[C@H]1CC[C@@H]2[C@@H](C)[C@H]3[C@H](C[C@H]4[C@@H]5CC=C6C[C@@H](O)CC[C@]6(C)[C@H]5CC[C@]34C)N2C1 [solanidine] | solanid-4-en-3-one | solanid-4-en-3-one | – | product formed from substrate (tomato GAME25 [2]): solanid-4-en-3-one
C[C@H]1CC[C@]2(NC1)O[C@H]1C[C@H]3[C@@H]4CC=C5C[C@@H](O)CC[C@]5(C)[C@H]4CC[C@]3(C)[C@H]1[C@@H]2C [dehydrotomatidine] | tomatid-4-en-3-one | tomatid-4-en-3-one | – | toxicity to plant cells (plant cells): highly toxic
C[C@@H]1CC[C@@]2(OC1)O[C@H]1C[C@H]3[C@@H]4CC=C5C[C@@H](O)CC[C@]5(C)[C@H]4CC[C@]3(C)[C@H]1[C@@H]2C [diosgenin] | – | – | – | product formed from substrate (tomato GAME25 [2]): diosgen-4-en-3-one
C[C@H]1CC[C@@H]2[C@@H](C)[C@H]3[C@H](C[C@H]4[C@@H]5CC=C6C[C@@H](O[C@@H]7O[C@H](CO)[C@H](O[C@@H]8O[C@@H](C)[C@H](O)[C@@H](O)[C@H]8O)[C@H](O)[C@@H]7O[C@@H]7O[C@@H](C)[C@@H](O)[C@@H](O)[C@H]7O)CC[C@]6(C)[C@H]5CC[C@]34C)N2C1 [α-chaconine] | no activity | no activity | – | –
C[C@H]1CC[C@]2(NC1)O[C@H]1C[C@H]3[C@@H]4CC[C@H]5C[C@@H](O[C@@H]6O[C@H](CO)[C@H](O[C@@H]7O[C@H](CO)[C@@H](O)[C@H](O[C@@H]8OC[C@@H](O)[C@H](O)[C@H]8O)[C@H]7O[C@@H]7O[C@H](CO)[C@@H](O)[C@H](O)[C@H]7O)[C@H](O)[C@H]6O)CC[C@]5(C)[C@H]4CC[C@]3(C)[C@H]1[C@@H]2C [α-tomatine] | no activity | no activity | forming hydroxytomatine | hydroxylation of substrate (SlGAME31; absence of iron): minor amounts of hydroxytomatine were still generated; hydroxylation of substrate (SlGAME31; removal of either cofactor (ketoglutaric or ascorbic acid)): lack of activity; toxicity to animals and humans compared to SGAs possessing the C-5,6 double bond (e.g. α-chaconine and α-solanine) (animals and humans): much less toxic
C[C@H]1CC[C@]2(NC1)O[C@H]1C[C@H]3[C@@H]4CC=C5C[C@@H](O[C@@H]6O[C@H](CO)[C@H](O[C@@H]7O[C@H](CO)[C@@H](O)[C@H](O[C@@H]8OC[C@@H](O)[C@H](O)[C@H]8O)[C@H]7O[C@@H]7O[C@H](CO)[C@@H](O)[C@H](O)[C@H]7O)[C@H](O)[C@H]6O)CC[C@]5(C)[C@H]4CC[C@]3(C)[C@H]1[C@@H]2C [dehydrotomatine] | no activity | no activity | did perform hydroxylation | –
C[C@@H]1CC[C@@]2(NC1)O[C@H]1C[C@H]3[C@@H]4CC=C5C[C@@H](O[C@@H]6O[C@H](CO)[C@@H](O[C@@H]7O[C@@H](C)[C@H](O)[C@@H](O)[C@H]7O)[C@H](O)[C@H]6O[C@@H]6O[C@@H](C)[C@H](O)[C@@H](O)[C@H]6O)CC[C@]5(C)[C@H]4CC[C@]3(C)[C@H]1[C@@H]2C [α-solamargine] | no activity | no activity | generating hydroxysolamargine | hydroxylation of substrate (SmGAME31): performed hydroxylation

Source: patent US12129475B2, “Glycoalkaloid metabolism enyzymes (GAMES) and uses thereof” (priority 2017, dated 2024)
